Source: patent publication US20220033434A1, “ANDROGEN RECEPTOR NUCLEIC ACIDS AND USES THEREOF” (Avidity Biosciences, Inc., priority 2016, published 2022)
In the oligonucleotide strings, read from the 5' end, every base follows the letter of its sugar. An asterisk marks phosphorothioate; unmarked linkages are phosphodiester. Other units and linkages are bracketed, terminal groups are in braces. A string of capitals states the bases alone. d = 2'-deoxy (DNA); m = 2'-O-methyl; f = 2'-fluoro

Legend:
Type in all cases: cell-based, human
AR-SV(3) = assay: AR protein knock-down by Western blot after siRNA transfection in 22RV1 cells: AR-SV(3); settings: 5 nM siRNA, 50 h post transfection, compared to controls
Summary of the method: (§1)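 Western read-out: AR detected with an antibody to an N-terminal region shared by full-length AR and splice variants, normalised against α-tubulin, fluorescent secondaries. Cells received 5 nM siRNA (final) by lipid transfection; harvest at 50 h for 22RV1, 72 h for LNCaP.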

AR FL(1) = assay: AR protein knock-down by Western blot after siRNA transfection in 22RV1 cells: AR FL(1); settings: 5 nM siRNA, 50 h post transfection, compared to controls
Summary of the method: as §1

AR mRNA [1] = assay: AR mRNA IC50 and maximal KD, siRNA at various concentrations, 22RV1 cells, qPCR probes exon junctions 1/2 or 4/5
Experimental: (§2) Focusing on siRNAs targeting AR sequences exons 1 and 2, the ability of these siRNAs to downregulate AR mRNA at a concentration of 5 nM was determined by RT-qPCR. For this purpose, siRNAs were transfected into 22RV1 and LNCaP cells as described above. At 24 hrs post-transfection, RNA was harvested from cells using a Qiagen RNeasy® Plus Mini Kit or Stratec InviTrap® RNA Cell HTS96 kit. The concentration of each isolated RNA was determined via A260 measurement using a NanoDrop spectrophotometer. RNA samples were reverse transcribed to cDNA using the High Capacity RNA to cDNA Kit (Life Technologies) according to the manufacturer's instructions. cDNA samples were then quantified by qPCR using AR-specific probes and results normalized to either endogenous β-actin or PPIB using the standard 2^−ΔΔCt method. These studies identified 6 siRNAs that at a concentration of 5 nM down regulated AR mRNA in 22RV1 and LNCaP cells by more than 80% compared to controls (Table 4).
(§3) To determine the concentration required to reduce AR expression by 50% (IC50) and maximal KD activity, these siRNAs were transfected into LNCaP, C4-2, and 22RV1 cells at various concentrations starting at 100 nM. C4-2 (MD Anderson) is an LNCaP subline that has been selected for resistance against clinically used AR antagonists (Wu et al., “Derivation of androgen-independent human LNCaP prostatic cancer cell sublines: Role of bone stromal cells,” International J Cancer 1994; 57:406-412). Cells were harvested 48 h post-transfection; RNA was prepared and analyzed as stated above. For these experiments, specific AR qPCR probes located at the exon junctions 1/2 or 4/5 were used that recognize most mRNAs of relevant AR isoforms or primarily full length AR mRNA, respectively. All tested siRNAs lowered AR expression with subnanomolar potency to 70% in 22RV1 cells and to ≥90% in LNCaP and C4-2 cells (Table 5). […]

AR mRNA [2] = assay: AR mRNA IC50 and maximal KD, siRNA at various concentrations, LNCaP cells, qPCR probes exon junctions 1/2 or 4/5
Experimental: as §2, §3

AR-SV(2) = assay: AR protein knock-down by Western blot after siRNA transfection in 22RV1 cells: AR-SV(2); settings: 5 nM siRNA, 50 h post transfection, compared to controls
Summary of the method: as §1

AR mRNA [3] = assay: AR mRNA downregulation by RT-qPCR at 5 nM siRNA in LNCaP cells; settings: 24 hrs post-transfection
Experimental: as §2

AR mRNA [4] = assay: AR mRNA IC50 and maximal KD, siRNA at various concentrations, C4-2 cells, qPCR probes exon junctions 1/2 or 4/5
Experimental: as §2, §3

[5] = test system: AR FL (full length AR T877A LBD mutant); assay: AR protein knock-down by Western blot after siRNA transfection in LNCaP cells: AR FL; settings: 5 nM siRNA, 72 h post transfection, compared to controls
Summary of the method: as §1

AR mRNA [6] = assay: AR mRNA downregulation by RT-qPCR at 5 nM siRNA in 22RV1 cells; settings: 24 hrs post-transfection
Experimental: as §2

[7] = AR qPCR probe at exon junction 1/2, 48 h post-transfection
[8] = AR qPCR probe at exon junction 1/2, 48 h post-transfection, read-out: IC50 (nM), 22RV1, Exon 1/2
[9] = AR qPCR probe at exon junction 4/5, 48 h post-transfection
[10] = AR qPCR probe at exon junction 4/5, 48 h post-transfection, read-out: IC50 (nM), 22RV1, Exon 4/5
[11] = AR qPCR probe at exon junction 1/2, 48 h post-transfection, read-out: IC50 (nM), LNCaP, Exon 1/2
[12] = AR qPCR probe at exon junction 4/5, 48 h post-transfection, read-out: IC50 (nM), LNCaP, Exon 4/5
[13] = AR qPCR probe at exon junction 1/2, 48 h post-transfection, read-out: IC50 (nM), C4-2, Exon 1/2
[14] = AR qPCR probe at exon junction 4/5, 48 h post-transfection, read-out: IC50 (nM), C4-2, Exon 4/5

Substance | % KD AR Protein 22RV1 AR-SV(3) (AR-SV(3)) | % KD AR Protein 22RV1 AR FL(1) (AR FL(1)) | max KD (%), 22RV1, Exon 1/2 (AR mRNA [1]; [7]) | IC50 (AR mRNA [1]; [8]) | max KD (%), 22RV1, Exon 4/5 (AR mRNA [1]; [9]) | IC50 (AR mRNA [1]; [10]) | max KD (%), LNCaP, Exon 1/2 (AR mRNA [2]; [7]) | IC50 (AR mRNA [2]; [11]) | max KD (%), LNCaP, Exon 4/5 (AR mRNA [2]; [9]) | IC50 (AR mRNA [2]; [12]) | % KD AR Protein 22RV1 AR-SV(2) (AR-SV(2)) | % KD AR RNA LNCaP (AR mRNA [3]) | max KD (%), C4-2, Exon 1/2 (AR mRNA [4]; [7]) | IC50 (AR mRNA [4]; [13]) | max KD (%), C4-2, Exon 4/5 (AR mRNA [4]; [9]) | IC50 (AR mRNA [4]; [14]) | % KD AR Protein LNCaP AR FL [5] | % KD AR RNA 22RV1 (AR mRNA [6])
XD-01827: AR siRNA with chemical modification, Id # 2819; sense X05349 (SEQ ID NO: 179), antisense X05350 (SEQ ID NO: 180) (sense mUmGfGmGfUmGfUmCfAmCfUmAfUmGfGmAfGmCfUdT*dT; antisense fAfGmCfUmCfCmAfUmAfGmUfGmAfCmAfCmCfCmAdT*dT) | 93% | 89% | 38.7% | 0.108 nM | 54.0% | 0.068 nM | 81.7% | 0.053 nM | 84.5% | 0.06 nM | 92% | 86% | 83.2% | 0.052 nM | 85.7% | 0.052 nM | 90% | 89%
XD-01817: AR siRNA with chemical modification, Id # 1987; sense X05329 (SEQ ID NO: 159), antisense X05330 (SEQ ID NO: 160) (sense mAmAfGmGfUmUfCmUfCmUfGmCfUmAfGmAfCmGfAdT*dT; antisense fUfCmGfUmCfUmAfGmCfAmGfAmGfAmAfCmCfUmUdT*dT) | 86% | 83% | 49.3% | 0.059 nM | 61.1% | 0.043 nM | 83.4% | 0.018 nM | 87.2% | 0.017 nM | 91% | 87% | 83.6% | 0.021 nM | 84.1% | 0.023 nM | 99% | 83%
XD-01828: AR siRNA with chemical modification, Id # 2820; sense X05351 (SEQ ID NO: 181), antisense X05352 (SEQ ID NO: 182) (sense mGmGfGmUfGmUfCmAfCmUfAmUfGmGfAmGfCmUfCdT*dT; antisense fGfAmGfCmUfCmCfAmUfAmGfUmGfAmCfAmCfCmCdT*dT) | 92% | 80% | 51.7% | 0.042 nM | 50.7% | 0.028 nM | 84.8% | 0.023 nM | 81.7% | 0.028 nM | 89% | 84% | 81.1% | 0.022 nM | 77.7% | 0.02 nM | 90% | 96%
XD-01821: AR siRNA with chemical modification, Id # 2207; sense X05337 (SEQ ID NO: 167), antisense X05338 (SEQ ID NO: 168) (sense mCmUfAmCfAmAfCmUfUmUfCmCfAmCfUmGfGmCfUdT*dT; antisense fAfGmCfCmAfGmUfGmGfAmAfAmGfUmUfGmUfAmGdT*dT) | 7% | 73% | – | – | – | – | – | – | – | – | 80% | 81% | – | – | – | – | 96% | 68%
